Counter-ions that a name gives are not always drawn. Like-named read-outs stand apart in the source and are kept apart here. Square brackets hold non-standard residues; d marks the D form. Peptide text beside a SMILES is read from it. * marks the point of attachment. Fmoc = O=C(OCC1c2ccccc2-c2ccccc21)*; dAllylGly = C=CC[C@@H](N)C(=O)O; AllylGly = C=CC[C@H](N)C(=O)O
Columns and labels:
[1] = system: Staphylococcus aureus strain ATCC 6538P; test: Antibacterial screening (MIC) of compounds of Example 2, S. aureus, Mueller-Hinton broth; assay type: cell-based
Method: Antibacterial Screening Methodology for Compounds of Example 2
(§1) • All assays used the Staphylococcus aureus strain ATCC 6538P. • Assays described in Chapter 5 additionally used the vancomycin-resistant enterococci and vancomycin-sensitive enterococci strains Ef243, Ef449, Ef820 and Ef487. Culture Media • Mueller-Hinton Broth Medium (MHB): MHB (Oxoid CM405) was prepared with final concentrations of […] MgCl2 and 2 μg/mL CaCl2. Culture medium was pre-warmed for approximately 2-3 h at 37° C. before use. • Mueller-Hinton Agar Medium (MHA): MMB containing 1.5% Agar (Merck Agar 1.01614). Maintenance of Bacteria • From a thawed cryovial, the bacteria was streaked onto MHA and the plate incubated overnight at 37° C. • From this plate, 10 cryovials were prepared by looping several colonies into 0.5 mL of 20% glycerol solution. The cryovials were immediately stored at −140° C. Preparation of Seed Cultures • A cryovial was removed from −140° C. storage and thawed at room temperature. • An MHA plate was streaked with a loopful of bacterial suspension and incubated overnight at 37° C. to create a parent plate (P1). • A daughter plate (D1) was streaked from the parent plate and incubated overnight at 37° C. […] The second parent plate (P2) was used to generate two additional daughter plates using the procedure outlined above before being discarded. • Cryovials were used twice to prepare parent plates (P1 and P2) before being discarded. […] A vancomycin control set (triplicate) and a compound negative control set (triplicate) were also included on each plate (FIG. 1). • The inoculated culture medium was incubated at 37° C. for 30 min, with shaking at 130 rpm. • Using a multichannel pipette, the contents of the first row were mixed before 50 μL was transferred to the second row. The pipette tips were changed and the process repeated by 50 μL of the mixed broth solutions in the second row being transferred to the third row. This process was repeated until the last row contained either the diluted test compound or a control (vancomycin or compound-negative). […] Antibacterial Testing of Compounds of Example 2 Introduction
(§2) The specific testing procedures and protocols are outlined in the section “Antibacterial Screening Methodology for the Compounds of Example 2”.
The antibacterial activity results are measured by minimum inhibitory concentration (MIC), which is the lowest concentration of compound necessary to prevent bacterial growth.

E.f449 = test: Antibacterial screening (MIC) of compounds of Example 2, E.f449; assay type: cell-based, Enterococcus faecium; settings: Example 2 compounds, enterococci strain E.f449; for MIC: Enterococcus faecium, read-out: Antibacterial activity μg/mL, E.f449
Method: as §1, §2
(§3) Vancomycin was used as the standard/control.

E.f243 = test: Antibacterial screening (MIC) of compounds of Example 2, E.f243; assay type: cell-based, Enterococcus faecium; settings: Example 2 compounds, enterococci strain E.f243; for MIC: Enterococcus faecium, read-out: Antibacterial activity μg/mL, E.f243
Method: as §1, §2, §3

E.f820 = test: Antibacterial screening (MIC) of compounds of Example 2, E.f820; assay type: cell-based, Enterrococci faecium; settings: Example 2 compounds, fully vancomycin-resistant strain E.f820; for MIC: read-out: Antibacterial activity μg/mL, E.f820
Method: as §1, §2, §3

E.f987 = test: Antibacterial screening (MIC) of compounds of Example 2, E.f987; assay type: cell-based, Enterococcus faecium; settings: Example 2 compounds, enterococci strain E.f987; for MIC: Enterococcus faecium, read-out: Antibacterial activity μg/mL, E.f987
[2] = Staphylococcus aureus, ATCC6538P, Example 2 compounds, S. aureus, 18 h, 37° C., read-out: Antibacterial activity (MIC μg/mL)
[3] = Staphylococcus aureus, ATCC6538P, Example 2 compounds (linear cationic peptides), S. aureus, vancomycin-susceptible strain, read-out: Antibacterial activity μg/mL, S.a
[4] = Example 2 compounds (linear cationic peptides), S. aureus, vancomycin-susceptible strain
[5] = Staphylococcus aureus, ATCC6538P, 18 h, read-out: Antibacterial activity (MIC μg/mL)

C=CCOc1ccc(C[C@H](NC(=O)[C@@H](CCCNC(=N)N)NC(=O)OCC2c3ccccc3-c3ccccc32)C(=O)OC)cc1.Cl [Compound 75]
MIC ([1]; Example 2 compounds, S. aureus, best activity named in the text): 7.8 µg/mL
MIC [1, 2]: 7.8 µg/mL

C=CCOc1ccc(C[C@H](NC(C)=O)C(=O)N[C@H](CCCCN)C(=O)N[C@@H](Cc2ccc(OCC=C)cc2)C(=O)OC)cc1.Cl [Compound 83, Methyl(2S,5R,8S)-2,8-di(4-allyloxybenzyl)-5-(4-aminobutyl)-3,6,9-triaza-4,7,10-trioxoundecanoate hydrochloride]
MIC [1, 2]: 125 µg/mL

C=CCOc1ccc2ccccc2c1-c1c(OCC(=O)N[C@H](CCCNC(=N)N)C(=O)Nc2cccc(C(=O)NOCc3ccccc3)c2)ccc2ccccc12.Cl (atropisomer, axis not shown) [Compound 162]
MIC (E.f449): > 125 µg/mL
MIC (E.f243): > 125 µg/mL
MIC (E.f820): > 125 µg/mL
MIC [1, 3]: 3.9 µg/mL
MIC (E.f987): > 125 µg/mL

C=CCOc1ccc2ccccc2c1-c1c(OCC(=O)N[C@H](CCCNC(=N)N)C(=O)Nc2cccc(C(=O)OCc3ccccc3)c2)ccc2ccccc12.Cl (atropisomer, axis not shown) [Compound 158, Benzyl(3R)-3-(6-(2-[2′-allyloxy-{1,1′}-(S)-binaphthalen-2-yloxy])-1,4-diaza-3-(3-guanidylpropyl)-2,5-dioxohexyl)benzoate hydrochloride]
MIC (E.f449): 62.5 µg/mL
MIC (E.f243): 62.5 µg/mL
MIC (E.f820): 31.3 µg/mL
MIC [1, 3]: 7.8 µg/mL
MIC (E.f987): 62.5 µg/mL

C=CCOC(=O)c1cccc(NC(=O)[C@@H](CCCN)NC(=O)COc2ccc3ccccc3c2-c2c(OCC=C)ccc3ccccc23)c1.Cl [Compound 159, Allyl(3R)-3-(6-(2-[2′-allyloxy-{1,1′}-(S)-binaphthalen-2-yloxy])-3-(3-aminopropyl)-1,4-diaza-2,5-dioxohexyl)benzoate hydrochloride]
Antibacterial activity μg/mL, E.f449 (E.f449): 125 µg/mL
Antibacterial activity μg/mL, E.f243 (E.f243): 125 µg/mL
Antibacterial activity μg/mL, E.f820 (E.f820): 62.5 µg/mL
Antibacterial activity μg/mL, S.a [1, 4]: 62.5 µg/mL
Antibacterial activity μg/mL, E.f987 (E.f987): >125 µg/mL

C=CC[C@@H](NC(=O)[C@@H](CCCNC(=N)N)NC(=O)OCC1c2ccccc2-c2ccccc21)C(=O)OC.Cl [Compound 71, Methyl(2R,5R)-2-allyl-3-aza-5-(9H-9-fluorenylmethyloxycarboxamido)-8-(guanidino)-4-oxooctanoate hydrochloride] (Fmoc-[dR]-[dAllylGly]-OMe)
MIC [1, 2]: 125 µg/mL

Methyl(2S,5S)-2-(4-allyloxybenzyl)-3-aza-5-(9H-9-fluorenylmethylcarboxamido)-8-guanidino-4-oxononanoate hydrochloride [Compound 76]
Antibacterial activity (MIC μg/mL) ([1]; Example 2 compounds, S. aureus, 18 h, 37° C.): 15.6 µg/mL

C=CC[C@H](NC(=O)[C@@H](CCCNC(=N)N)NC(=O)[C@@H](CCCCN)NC(=O)COc1ccc2ccccc2c1-c1c(OCCC(C)C)ccc2ccccc12)C(=O)OCc1ccccc1.Cl.Cl (atropisomer, axis not shown) [Compound 138]
MIC (E.f449): 15.6 µg/mL
MIC (E.f243): 31.3 µg/mL
MIC (E.f820): 15.6 µg/mL
MIC [1, 3]: 3.9 µg/mL
MIC (E.f987): 31.3 µg/mL

C=CC[C@H](NC(=O)[C@@H](CCCNC(=N)N)NC(=O)[C@@H](CCCCN)NC(=O)COc1ccc2ccccc2c1-c1c(OC)ccc2ccccc12)C(=O)OCc1ccccc1.Cl.Cl (atropisomer, axis not shown) [Compound 135]
MIC (E.f449): 62.5 µg/mL
MIC (E.f243): 125 µg/mL
MIC (E.f820): 62.5 µg/mL
MIC [1, 3]: 7.8 µg/mL
MIC (E.f987): 125 µg/mL

C=CCOc1ccc2ccccc2c1-c1c(OCC(=O)N[C@H](CCCN)C(=O)Nc2cccc(C(=O)OCc3ccccc3)c2)ccc2ccccc12.Cl [Compound 157, Benzyl(3R)-3-(6-(2-[2′-allyloxy-{1,1′}-(S)-binaphthalen-2-yloxy])-3-(3-aminopropyl)-1,4-diaza-2,5-dioxohexyl)benzoate hydrochloride]
Antibacterial activity μg/mL, E.f449 (E.f449): 125 µg/mL
Antibacterial activity μg/mL, E.f243 (E.f243): >125 µg/mL
Antibacterial activity μg/mL, E.f820 (E.f820): 125 µg/mL
Antibacterial activity μg/mL, S.a [1, 4]: 15.6 µg/mL
Antibacterial activity μg/mL, E.f987 (E.f987): >125 µg/mL

C=CCOc1ccc(C[C@H](NC(=O)[C@H](CCCCN)NC(=O)OCC2c3ccccc3-c3ccccc32)C(=O)OC)cc1.Cl [Compound 74, Methyl(2S,5S)-2-(4-allyloxybenzyl)-9-amino-3-aza-5-(9H-9-fluorenylmethyloxycarboxamido)-4-oxononanoate hydrochloride]
MIC [1, 2]: 15.6 µg/mL

COC(=O)[C@@H]1CC=CCOc2ccc(cc2)C[C@H](NC(C)=O)C(=O)N[C@H](CCCCN)C(=O)N1 [Compound 12, (7S,10R,13S,4E/Z)-13-Acetamido-10-(4-aminobutyl)-8,11-diaza-7-methoxycarbonyl-2-oxa-9,12-dioxo-1(1,4)phenylenacyclotetradecaphane-4-ene hydrochloride]
MIC [1, 5]: 62.5 µg/mL

C=CCOc1ccc2ccccc2c1-c1c(OCC(=O)N[C@H](CCCN)C(=O)Nc2cccc(C(=O)NOCc3ccccc3)c2)ccc2ccccc12.Cl [Compound 161]
Antibacterial activity μg/mL, E.f820 (E.f820): 62.5 µg/mL
Antibacterial activity μg/mL, S.a [1, 4]: 15.6 µg/mL

C=CCOc1ccc(C[C@H](NC(C)=O)C(=O)N[C@H](CCCCN)C(=O)N[C@@H](CC=C)C(=O)OC)cc1 [Compound 77, hydrochloride]
MIC [1, 5]: 125 µg/mL

COC(=O)[C@@H]1CC=CCOc2ccc(cc2)C[C@@H](NC(C)=O)C(=O)N[C@@H](CCCNC(=N)N)C(=O)N1.Cl [Compound 56, (7S,10S,13R,4E/Z)-13-Acetamido-8,11-diaza-10-(3-[amino{imino}methylamino]propyl)-7-methoxycarbonyl-2-oxa-9,12-dioxo-1(1,4)phenylenacyclotetradecaphane-4-ene]
MIC [1, 2]: 125 µg/mL

C=CC[C@@H](NC(=O)[C@H](CCCNC(=N)N)NC(=O)OCC1c2ccccc2-c2ccccc21)C(=O)OC.Cl [Compound 72, Methyl(2R,5S)-2-allyl-3-aza-5-(9H-9-fluorenylmethyloxycarboxamido)-8-(guanidino)-4-oxooctanoate hydrochloride] (Fmoc-Arg-[dAllylGly]-OMe)
MIC [1, 2]: 125 µg/mL

COC(=O)[C@@H]1Cc2ccc(cc2)OCC=CCOc2ccc(cc2)C[C@H](NC(C)=O)C(=O)N[C@H](CCCCN)C(=O)N1.Cl [Compound 65, (10S,13R,16S,4E/Z)-16-Acetamido-13-(4-aminobutyl)-11,14-diaza-10-methoxycarbonyl-2,7-dioxa-12,15-dioxo-1(1,4),8(4,1)-diphenylenecycloheptadecaphane-4-ene]
MIC [1, 2]: 15.6 µg/mL

C=CC[C@H](NC(=O)[C@@H](CCCNC(=N)N)NC(=O)OCC1c2ccccc2-c2ccccc21)C(=O)OC.Cl [Compound 69, Methyl(2S,5R)-2-allyl-3-aza-5-(9H-9-fluorenylmethyloxycarboxamido)-8-(guanidino)-4-oxooctanoate hydrochloride] (Fmoc-[dR]-[AllylGly]-OMe)
MIC [1, 2]: 125 µg/mL

C=CCOc1ccc(C[C@H](NC(=O)[C@@H](CCCCN)NC(=O)OCC2c3ccccc3-c3ccccc32)C(=O)OC)cc1.Cl [Compound 73, Methyl(2S,5R)-2-(4-allyloxybenzyl)-9-amino-3-aza-5-(9H-9-fluorenylmethyloxycarboxamido)-4-oxononanoate hydrochloride]
MIC [1, 2]: 31.3 µg/mL

C=CC[C@H](NC(=O)[C@H](CCCNC(=N)N)NC(=O)OCC1c2ccccc2-c2ccccc21)C(=O)OC.Cl [Compound 70, Methyl(2S,5S)-2-allyl-3-aza-5-(9H-9-fluorenylmethyloxycarboxamido)-8-(guanidino)-4-oxooctanoate hydrochloride] (Fmoc-Arg-[AllylGly]-OMe)
MIC [1, 2]: 125 µg/mL

From patent US8039430B2 (University of Wollongong, priority 2005, dated 2011)
